From patent US20100226597A1, “BORTEZOMIB AND PROCESS FOR PRODUCING SAME” (DR. REDDY'S LABORATORIES LIMITED, priority 2007, published 2010)
“Also recorded” adds a separate entry of the source.

What was measured:
[1] = Stability study of Bortezomib stored under general storage conditions (sealed polymeric bag, 25° C. and 60% RH), purity by HPLC; type: physicochemical
Protocol: (§1) HPLC measurements of Bortezomib samples for chemical purity were performed using Waters system, equipped with Waters symmetry shield RP-18, 250X4.6 mm ID, 5 μm, particle size and a UV detector operated on 270 nm. Analyses were performed using the following mobile phase, at flow rate of 1.0 ml/minute, run time 55 minutes. Mobile phase A: Mix 700 ml water, 300 ml Acetonitrile and 1 ml formic acid, filter and degas. Mobile phase B: Mix 800 ml Acetonitrile, 200 ml water and 1 ml formic acid, filter and degas. Elution: Gradient program

[2] = Stability study of aqueous solution of Bortezomib in basic medium (pH ~10.5), purity by HPLC
Protocol: A small quantity was taken from solution after 1 hours, 2 hours and 3 hours and the purity was checked by HPLC and compared to the original HPLC chromatogram of initial sample (immediately after adjusting the pH). The purity of each sample was obtained as % area by the HPLC chromatogram and compared to the initial purity value.
as §1

[3] = Stability study of Bortezomib in the exemplary storage system of the invention (two polybags with external desiccant), purity by HPLC; conditions: for Initial purity: % area by HPLC
Protocol: Two different samples of Bortezomib were stored at a storage condition of 2-8° C. and 25° C., 60% relative humidity (RH) in a storage system (packed in one Polybags having a thickness about 0.10 mm followed by repacking in another polybag having thickness of about 0.10 mm and containing external desiccant). A small quantity was taken from each sample after 15 days, 1 month (30th day), 2 months (60th day) and 3 months (90th day) and the purity was checked by HPLC and compared to the original HPLC chromatogram of each sample (before starting the storage period). The chemical purity of each sample was obtained as % area by the HPLC chromatogram and compared to the initial purity value (before starting the storage period).
as §1

[4] = 7th day, general storage conditions
[5] = 15th day, general storage conditions
[6] = 30th day, general storage conditions
[7] = initial, general storage conditions
[8] = after 1 hour, aqueous solution, pH ~10.5, 25 to 35° C.
[9] = after 2 hours, aqueous solution, pH ~10.5, 25 to 35° C.
[10] = after 3 hours, aqueous solution, pH ~10.5, 25 to 35° C.
[11] = initial, aqueous solution, pH ~10.5, 25 to 35° C.
[12] = stored at 2-8° C. in packaging of the invention, sample from methanol/water (Form A)
[13] = stored at 25° C. and 60% RH in packaging of the invention, sample from ethylacetate

- Impurity-a content on 7th day [1, 4]: 0.06%
- Impurity-b (RR and SS diastereomers) content on 7th day [1, 4]: 0.33%
- Bortezomib purity by HPLC, Purity on 7th day ([1]; 7th day, general storage conditions, sample from ethylacetate): 99.34%
- Impurity-a content on 15th day [1, 5]: 0.08%
- Impurity-b (RR and SS diastereomers) content on 15th day [1, 5]: 0.35%
- Bortezomib purity by HPLC, Purity on 15th day ([1]; 15th day, general storage conditions, sample from ethylacetate): 98.92%
- Impurity-a content on 30th day [1, 6]: 0.18%
- Impurity-b (RR and SS diastereomers) content on 30th day [1, 6]: 0.39%
- Bortezomib purity by HPLC, Purity on 30th day ([1]; 30th day, general storage conditions, sample from ethylacetate): 97.22%
- Impurity-a content, Initial [1, 7]: 0.06%
- Impurity-b (RR and SS diastereomers) content, Initial [1, 7]: 0.36%
- Bortezomib purity by HPLC, Initial purity ([1]; initial, general storage conditions, sample from ethylacetate): 99.49%
- Chemical Purity by HPLC, After 1 hour [2, 8]: 98.24%
- Impurity-a content, After 1 hour [2, 8]: 0.8924%
- Impurity-b (RR and SS diastereomers) content, After 1 hour [2, 8]: 0.4005%
- Chemical Purity by HPLC, After 2 hour [2, 9]: 98.01%
- Impurity-a content, After 2 hour [2, 9]: 0.9587%
- Impurity-b (RR and SS diastereomers) content, After 2 hour [2, 9]: 0.4746%
- Chemical Purity by HPLC, After 3 hours [2, 10]: 97.77%
- Impurity-a content, After 3 hours [2, 10]: 1.0229%
- Impurity-b (RR and SS diastereomers) content, After 3 hours [2, 10]: 0.5418%
- Chemical Purity by HPLC, Initial ([2]; initial (immediately after adjusting the pH), aqueous solution, pH ~10.5 (2N NaOH), 25 to 35° C.): 98.61%
- Impurity-a content, Initial [2, 11]: 0.7899%
- Impurity-b (RR and SS diastereomers) content, Initial [2, 11]: 0.2991%
- Purity on 15th day [3, 12]: 99.59%
- Purity on 15th day [3, 13]: 99.56%
- Purity on 30th day [3, 12]: 99.59%
- Purity on 30th day [3, 13]: 99.60%
- Purity on 60th day [3, 12]: 99.65%
- Purity on 60th day [3, 13]: 99.63%
- Purity on 90th day [3, 12]: 99.66%
- Purity on 90th day [3, 13]: 99.54%
- Initial purity [3, 12]: 99.60%
- Initial purity [3, 13]: 99.58%
Compound: CC(C)C[C@H](NC(=O)[C@H](Cc1ccccc1)NC(=O)c1cnccn1)B(O)O [Bortezomib, [(1R)-3-methyl-1-[[(2S)-1-oxo-3-phenyl-2-[(pyrazinylcarbonyl)amino]propyl]amino]butyl]boronic acid]
- Storage stability in words ([1]; sealed polymeric bag without desiccants, normal temperature): unstable; also recorded: substantial degradation of product
- Stability in aqueous basic solution in words ([2]; aqueous solution maintained under stirring in a basic medium): decrease the purity; also recorded: purity of the compound decreased continually
- Storage stability in words ([3]; packaging conditions of the invention, prolonged storage periods): can be stabilized while retaining its purity content over prolonged storage periods
